Assay results published in patent publication US11046716B2, “Beta-lactamase inhibitors” (priority 2015, dated 2021).

Experiments:
VIM-2 = target: T1, VIM-2 (Escherichia coli, UniProt Q5U7L7); assay: β-lactamase enzyme inhibition assay, VIM-2 (nitrocefin substrate); type: biochemical; conditions: Class B; nitrocefin substrate, 486 nm; read-out: VIM-2
T1 construct: made in house; host or cells: E. coli BL21(DE3)
Summary of the method: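 Nitrocefin hydrolysis (100 μM final, A486 read for 10 min) by purified VIM-2 after a 15-min, 37° C enzyme–inhibitor preincubation. IC50 is the concentration halving initial hydrolysis rate, derived from percent inhibition against no-inhibitor wells.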

[1] = tested on: K. pneumoniae expressing the Class A carbapenemase KPC-2; assay: Broth microdilution MIC assay with meropenem, K. pneumoniae KPC-2; type: cell-based; conditions: Fixed Mero (meropenem) 4 μg/mL; K. p. 156319 KPC-3
Summary of the method: (§1)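 CLSI broth microdilution in cation-adjusted Mueller Hinton broth measured growth of β-lactamase-expressing strains, grown 3-5 h beforehand. The β-lactam partner was held at 4 μg/ml final while test compound was titrated 2-fold from 16 to 0.125 μg/mL final. After 16-20 h at 37° C, the compound MIC was determined by eye.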

OXA-48 = OXA-48 (UniProt Q6XEC0); assay: β-lactamase enzyme inhibition assay, Class D oxacillinase; type: biochemical; conditions: read-out: OXA-48
AmpC = target: T2, AmpC (Enterobacter cloacae, UniProt P05364); assay: β-lactamase enzyme inhibition assay, p99 AmpC (nitrocefin substrate); type: biochemical
T2 construct: made in house; host or cells: E. coli BL21(DE3)
T2 sequence (P05364 21-381): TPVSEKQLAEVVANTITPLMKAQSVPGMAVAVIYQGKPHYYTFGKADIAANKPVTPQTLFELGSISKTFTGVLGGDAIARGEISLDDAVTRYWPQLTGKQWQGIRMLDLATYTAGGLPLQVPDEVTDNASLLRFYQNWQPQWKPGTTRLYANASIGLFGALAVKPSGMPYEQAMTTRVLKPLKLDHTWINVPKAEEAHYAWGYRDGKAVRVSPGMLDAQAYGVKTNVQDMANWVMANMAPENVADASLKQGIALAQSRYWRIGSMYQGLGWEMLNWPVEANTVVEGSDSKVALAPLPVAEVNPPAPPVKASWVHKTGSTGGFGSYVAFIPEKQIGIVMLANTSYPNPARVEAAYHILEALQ
Summary of the method: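 Compounds are mixed with purified, untagged recombinant β-lactamase and held 15 min at 37 °C. Substrate is then added. Absorbance is followed immediately, and percent inhibition per concentration gives the IC50.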

[2] = tested on: K. pneumoniae expressing the class A carbapenemase KPC-2 and the class B carbapenemase VIM-4; assay: Broth microdilution MIC assay with meropenem, K. pneumoniae KPC-2 and VIM-4; type: cell-based; conditions: Fixed Mero (meropenem) 4 μg/mL; K. p. A-1797 KPC-2 VIM-4
Summary of the method: as §1

SHV-5 = target: T3, SHV-5 (Klebsiella pneumoniae, UniProt P0A3M1); assay: β-lactamase enzyme inhibition assay, SHV-5 (cefotaxime substrate); type: biochemical
T3 construct: made in house; host or cells: E. coli BL21(DE3)
T3 sequence (P0A3M1 22-286): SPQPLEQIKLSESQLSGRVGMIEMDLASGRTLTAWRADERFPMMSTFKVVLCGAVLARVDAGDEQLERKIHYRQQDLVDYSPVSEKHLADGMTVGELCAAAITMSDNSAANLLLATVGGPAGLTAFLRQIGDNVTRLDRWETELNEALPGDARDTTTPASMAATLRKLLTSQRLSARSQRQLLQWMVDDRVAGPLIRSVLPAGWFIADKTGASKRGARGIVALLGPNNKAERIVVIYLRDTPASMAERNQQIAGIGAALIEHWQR
Summary of the method: (§2)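 Compounds are mixed with purified, untagged recombinant β-lactamase and held 15 min at 37 °C. Substrate is then added: nitrocefin (100 μM final) for OXA-1, imipenem for KPC-2, cefotaxime for SHV-5. Absorbance is followed immediately, and percent inhibition per concentration gives the IC50.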

[3] = tested on: P. aeruginosa expressing the Class B carbapenemase VIM-2; assay: Broth microdilution MIC assay with meropenem, P. aeruginosa VIM-2; type: cell-based; conditions: Fixed Mero (meropenem) 4 μg/mL; P. aerug. 2775 VIM-2
Summary of the method: as §1

KPC-2 = target: T4, KPC-2 (Klebsiella pneumoniae, UniProt Q9F663); assay: β-lactamase enzyme inhibition assay, KPC-2 (imipenem substrate); type: biochemical; conditions: Class A; imipenem substrate, 300 nm; read-out: KPC-2
T4 construct: made in house; host or cells: E. coli BL21(DE3)
T4 sequence (Q9F663 25-293, looked up): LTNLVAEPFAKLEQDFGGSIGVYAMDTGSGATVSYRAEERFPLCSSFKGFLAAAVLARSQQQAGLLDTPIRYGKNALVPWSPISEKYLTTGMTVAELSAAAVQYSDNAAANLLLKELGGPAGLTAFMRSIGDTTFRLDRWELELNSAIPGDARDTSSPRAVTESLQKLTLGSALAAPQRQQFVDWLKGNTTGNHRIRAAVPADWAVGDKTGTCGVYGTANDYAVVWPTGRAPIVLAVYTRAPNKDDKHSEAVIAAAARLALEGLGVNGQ
Summary of the method: as §2

[4] = tested on: E. cloacae expressing the Class C P99; assay: Broth microdilution MIC assay with ceftazidime, E. cloacae P99; type: cell-based; conditions: Fixed CAZ (ceftazidime) 4 μg/mL; E. cl. 144200 p99 AmpC
Summary of the method: as §1

[5] = tested on: K. pneumoniae producing the Class D carbapenemase OXA-48; assay: Broth microdilution MIC assay with meropenem, K. pneumoniae OXA-48; type: cell-based; conditions: Fixed Mero (meropenem) 4 μg/mL; K. p. 11978 OXA-48
Summary of the method: as §1

[6] = tested on: E. coli expressing the Class A Extended Spectrum Beta-Lactamase (ESBL) CTX-M-15; assay: Broth microdilution MIC assay with ceftazidime, E. coli CTX-M-15; type: cell-based; conditions: Fixed CAZ (ceftazidime) 4 μg/mL; E. coli ESBL4 CTX-M-15
Summary of the method: as §1

SMILES	IC50 (VIM-2)	MIC (μg/mL) of Exemplary Compounds in presence of fixed β-lactams: K. p. 156319 KPC-3 [1]	IC50 (OXA-48)	IC50 (AmpC)	MIC (μg/mL) of Exemplary Compounds in presence of fixed β-lactams: K. p. A-1797 KPC-2 VIM-4 [2]	IC50 (SHV-5)	MIC (μg/mL) of Exemplary Compounds in presence of fixed β-lactams: P. aerug. 2775 VIM-2 [3]	IC50 (KPC-2)	MIC (μg/mL) of Exemplary Compounds in presence of fixed β-lactams: E. cl. 144200 p99 AmpC [4]	MIC (μg/mL) of Exemplary Compounds in presence of fixed β-lactams: K. p. 11978 OXA-48 [5]	MIC (μg/mL) of Exemplary Compounds in presence of fixed β-lactams: E. coli ESBL4 CTX-M-15 [6]
NCc1cc(-c2cn(CC(=O)N[C@H]3Cc4cccc(C(=O)O)c4OB3O)nn2)cs1 [Example 55, (R)-3-(2-(4-(5-(aminomethyl)thiophen-3-yl)-1H-1,2,3-triazol-1-yl)acetamido)-2-hydroxy-3,4-dihydro-2H-benzo[e][1,2]oxaborinine-8-carboxylic acid]	100 to 1000 nM	C (C represents an MIC of <1 μg/mL)	100 to 1000 nM	< 100 nM	B (B represents an MIC between 1 and 16 μg/mL inclusive)	< 100 nM	B (B represents an MIC between 1 and 16 μg/mL inclusive)	< 100 nM	C (C represents an MIC of <1 μg/mL)	B (B represents an MIC between 1 and 16 μg/mL inclusive)	C (C represents an MIC of <1 μg/mL)
O=C(Cn1cc([N+](=O)[O-])cn1)N[C@H]1Cc2cccc(C(=O)O)c2OB1O [Example 56, (R)-2-hydroxy-3-(2-(4-nitro-1H-pyrazol-1-yl)acetamido)-3,4-dihydro-2H-benzo[e][1,2]oxaborinine-8-carboxylic acid]	100 to 1000 nM	B (B represents an MIC between 1 and 16 μg/mL inclusive)	100 to 1000 nM	< 100 nM	B (B represents an MIC between 1 and 16 μg/mL inclusive)	< 100 nM	B (B represents an MIC between 1 and 16 μg/mL inclusive)	< 100 nM	C (C represents an MIC of <1 μg/mL)	B (B represents an MIC between 1 and 16 μg/mL inclusive)	C (C represents an MIC of <1 μg/mL)
O=C(Cn1cc2c(n1)CNC2)N[C@H]1Cc2cccc(C(=O)O)c2OB1O [Example 57, (R)-3-(2-(5,6-dihydropyrrolo[3,4-c]pyrazol-2(4H)-yl)acetamido)-2-hydroxy-3,4-dihydro-2H-benzo[e][1,2]oxaborinine-8-carboxylic acid]	100 to 1000 nM	C (C represents an MIC of <1 μg/mL)	1000 to 10000 nM	< 100 nM	B (B represents an MIC between 1 and 16 μg/mL inclusive)	< 100 nM	B (B represents an MIC between 1 and 16 μg/mL inclusive)	< 100 nM	C (C represents an MIC of <1 μg/mL)	B (B represents an MIC between 1 and 16 μg/mL inclusive)	C (C represents an MIC of <1 μg/mL)
Nc1cnn(CC(=O)N[C@H]2Cc3cccc(C(=O)O)c3OB2O)c1 [Example 58, (R)-3-(2-(4-amino-1H-pyrazol-1-yl)acetamido)-2-hydroxy-3,4-dihydro-2H-benzo[e][1,2]oxaborinine-8-carboxylic acid]	100 to 1000 nM	B (B represents an MIC between 1 and 16 μg/mL inclusive)	100 to 1000 nM	< 100 nM	B (B represents an MIC between 1 and 16 μg/mL inclusive)	< 100 nM	B (B represents an MIC between 1 and 16 μg/mL inclusive)	< 100 nM	C (C represents an MIC of <1 μg/mL)	B (B represents an MIC between 1 and 16 μg/mL inclusive)	C (C represents an MIC of <1 μg/mL)
NCCn1cc(C(=O)N[C@H]2Cc3cccc(C(=O)O)c3OB2O)nn1 [Example 59, (R)-3-(1-(2-aminoethyl)-1H-1,2,3-triazole-4-carboxamido)-2-hydroxy-3,4-dihydro-2H-benzo[e][1,2]oxaborinine-8-carboxylic acid]	< 100 nM	B (B represents an MIC between 1 and 16 μg/mL inclusive)	1000 to 10000 nM	< 100 nM	B (B represents an MIC between 1 and 16 μg/mL inclusive)	< 100 nM	C (C represents an MIC of <1 μg/mL)	< 100 nM	C (C represents an MIC of <1 μg/mL)	A (A represents an MIC>16 μg/mL)	C (C represents an MIC of <1 μg/mL)
CC(C)(C(=O)N[C@H]1Cc2cccc(C(=O)O)c2OB1O)n1cc(CNCCN)nn1 [Example 60, (R)-3-(2-(4-(((2-aminoethyl)amino)methyl)-1H-1,2,3-triazol-1-yl)-2-methylpropanamido)-2-hydroxy-3,4-dihydro-2H-benzo[e][1,2]oxaborinine-8-carboxylic acid]	< 100 nM	B (B represents an MIC between 1 and 16 μg/mL inclusive)	< 100 nM	< 100 nM	C (C represents an MIC of <1 μg/mL)	< 100 nM	C (C represents an MIC of <1 μg/mL)	100 to 1000 nM	C (C represents an MIC of <1 μg/mL)	B (B represents an MIC between 1 and 16 μg/mL inclusive)	B (B represents an MIC between 1 and 16 μg/mL inclusive)
NCCONC(=O)c1cn(CC(=O)N[C@H]2Cc3cccc(C(=O)O)c3OB2O)nn1 [Example 61, (R)-3-(2-(4-((2-aminoethoxy)carbamoyl)-1H-1,2,3-triazol-1-yl)acetamido)-2-hydroxy-3,4-dihydro-2H-benzo[e][1,2]oxaborinine-8-carboxylic acid]	100 to 1000 nM	B (B represents an MIC between 1 and 16 μg/mL inclusive)	100 to 1000 nM	< 100 nM	B (B represents an MIC between 1 and 16 μg/mL inclusive)	< 100 nM	C (C represents an MIC of <1 μg/mL)	< 100 nM	C (C represents an MIC of <1 μg/mL)	B (B represents an MIC between 1 and 16 μg/mL inclusive)	C (C represents an MIC of <1 μg/mL)
Nc1cc(-c2cn(CC(=O)N[C@H]3Cc4cccc(C(=O)O)c4OB3O)nn2)ccn1 [Example 62, (R)-3-(2-(4-(2-aminopyridin-4-yl)-1H-1,2,3-triazol-1-yl)acetamido)-2-hydroxy-3,4-dihydro-2H-benzo[e][1,2]oxaborinine-8-carboxylic acid]	100 to 1000 nM	C (C represents an MIC of <1 μg/mL)	< 100 nM	< 100 nM	A (A represents an MIC>16 μg/mL)	< 100 nM	B (B represents an MIC between 1 and 16 μg/mL inclusive)	< 100 nM	C (C represents an MIC of <1 μg/mL)	B (B represents an MIC between 1 and 16 μg/mL inclusive)	C (C represents an MIC of <1 μg/mL)
